# Measured values reported in patent US20160320368A1, “METHOD AND APPARATUS FOR PREDICTING EFFECTIVE DOSE OR SENSITIVITY OF 5-HYDROXY-1H-IMIDAZOLE-4-CARBOXAMIDE, METHOD FOR DETERMINING AMOUNT OF XANTHOSINE MONOPHOSPHATE, AND TREATMENT AGENT AND METHOD FOR TREATING MYELODYSPLASTIC SYNDROME” (FUJIFILM Corporation, priority 2014, published 2016).
# Experiments:
# [1] = test system: XMP in blood cells of healthy human; test: XMP in blood cells of healthy human (hemolysis, Example 4); format: cell-based; conditions: 37° C., 8 hours, non-treated = 100%
# Procedure: (§1) A ¾ hydrate of Compound A was used as a test compound.
# 450 μL of the blood collected from two healthy individuals by heparinized blood collection (Analyte A and Analyte B) was added to each of 1.5 mL tubes, and 50 μL of a PBS solution of the test compound (0 μg/mL, 10 μg/mL, 30 μg/mL, 100 μg/mL, 300 μg/mL, or 1000 μg/mL in terms of Compound A) for each concentration was added to each tube. The reaction mixture was stirred in an incubator at 37° C. for 8 hours. Then, BD Pharm Lyse (555899, manufactured by Becton, Dickinson and Company, Inc.) was added to the blood (2 mL of BD Pharm Lyse was added relative to 0.2 mL of blood). After stirring with a vortex mixer, the reaction solution was protected from light and allowed to stand at room temperature for 15 min. After centrifugation at 20° C. and 1000×g for 5 min, the supernatant was removed and suspended in 10 mL of a PBS solution. After centrifugation at 4° C. and 1000×g for 5 min, the supernatant was removed, and 1000 μL of methanol was added to each tube, followed by stirring. Thereafter, 500 μL of ultrapure water was added thereto, followed by further stirring. 600 μL of the reaction solution was divided into each of two tubes, and 400 μL of chloroform was added to each tube. The reaction solution was stirred and then centrifuged at 4° C. and 10000×g for 15 min. 400 μL of the aqueous phase was recovered and added to an ultrafiltration tube, followed by centrifugation at 12° C. and 9200×g for 2 hours. The filtrates were combined and then dried under reduced pressure at 40° C. for 2 hours by using a centrifugal evaporator. After drying, the resulting product was stored in a freezer at −80° C.
# The samples stored in (1) and (2) were returned to room temperature and 40 μL of ultrapure water was added to each sample. The mixture was stirred and centrifuged at 4° C. and 21500×g for 5 min. 35 μL of the supernatant was transferred to a vial. After storage at 4° C., XMP in samples was determined in the LC-MS/MS determination instrument, LC conditions and MS/MS conditions described in Example 3 (3).
# Amounts of XMP (%) were calculated assuming that the XMP value of a non-Compound A treated group (peak area value) is defined as 100%.
# GMP in whole blood = GMP in whole blood (Example 8); format: cell-based, human; conditions: 37° C., 8 hours, non-treated = 100%
# Procedure: as §1
# 450 μL of the blood collected from healthy individuals by heparinized blood collection was added to each tube, and 50 μL of a PBS solution of the test compound (0 μg/mL, 1 μg/mL, 10 μg/mL, or 100 μg/mL in terms of Compound A) for each concentration was added to each tube. The reaction mixture was stirred in an incubator at 37° C. for 8 hours.
# 400 μL of methanol was added to 100 μL of the blood sample obtained in (1). After stirring, 400 μL of chloroform was added, followed by further stirring. 120 μL of ultrapure water was added thereto, followed by stirring and then centrifugation at 4° C. and 10000×g for 15 min. 400 μL of the aqueous phase was recovered and added to an ultrafiltration tube, followed by centrifugation at 12° C. and 9200×g for 2 hours. The filtrate was dried under reduced pressure at 40° C. for 2 hours by using a centrifugal evaporator. After drying, the resulting product was stored in a freezer at −80° C.
# The samples obtained in (2) were returned to room temperature and 40 μL of ultrapure water was added to each sample. The mixture was stirred and centrifuged at 4° C. and 21500×g for 5 min. 35 μL of the supernatant was transferred to a vial. After storage at 4° C., XMP, GMP and GTP in the samples were determined in the LC-MS/MS determination instrument and LC conditions described in Example 3 (3), and MS/MS conditions shown in Table 15.
# Amounts of XMP, GMP and GTP (%) were calculated assuming that the XMP, GMP and GTP values of a non-Compound A treated group (peak area value) are defined as 100%.
compound,measurement,setting,value
"NC(=O)c1nc[nH]c1O [Compound A, 5-Hydroxy-1H-imidazole-4-carboxamide]",Amount of XMP (%) Analyte A,[1]; Compound A 1 μg/mL,60%
same,Amount of XMP (%) Analyte B,[1]; Compound A 1 μg/mL,51%
same,Amount of XMP (%) Analyte A,[1]; Compound A 3 μg/mL,45%
same,Amount of XMP (%) Analyte B,[1]; Compound A 3 μg/mL,37%
same,Amount of XMP (%) Analyte A,[1]; Compound A 10 μg/mL,37%
same,Amount of XMP (%) Analyte B,[1]; Compound A 10 μg/mL,25%
same,Amount of XMP (%) Analyte A,[1]; Compound A 30 μg/mL,27%
same,Amount of XMP (%) Analyte B,[1]; Compound A 30 μg/mL,18%
same,Amount of XMP (%) Analyte A,[1]; Compound A 100 μg/mL,16%
same,Amount of XMP (%) Analyte B,[1]; Compound A 100 μg/mL,10%
same,Amount of each compound in whole blood (%) GMP,GMP in whole blood; Compound A 1 μg/mL,85%
same,Amount of each compound in whole blood (%) GMP,GMP in whole blood; Compound A 10 μg/mL,85%
same,Amount of each compound in whole blood (%) GMP,GMP in whole blood; Compound A 100 μg/mL,91%
